Source: patent US20080255206A1, “Rxr Agonists and Antagonists, Alone or in Combination with Ppar Ligands, in the Treatment of Metabolic and Cardiovascular Diseases” (priority 2005, published 2008)

What was measured:
PPARγ/RXRα Heterodimer = target: T1, PPARγ/RXRα Heterodimer (Homo sapiens, UniProt P19793); experiment: PPARγ/RXRα heterodimer activation (transactivation) assay; format: cell-based
T1 construct: co-transfected with plasmids expressing the full length RXR heteropartner receptor; expressed in transfected cells
T1 sequence (P19793 1-462): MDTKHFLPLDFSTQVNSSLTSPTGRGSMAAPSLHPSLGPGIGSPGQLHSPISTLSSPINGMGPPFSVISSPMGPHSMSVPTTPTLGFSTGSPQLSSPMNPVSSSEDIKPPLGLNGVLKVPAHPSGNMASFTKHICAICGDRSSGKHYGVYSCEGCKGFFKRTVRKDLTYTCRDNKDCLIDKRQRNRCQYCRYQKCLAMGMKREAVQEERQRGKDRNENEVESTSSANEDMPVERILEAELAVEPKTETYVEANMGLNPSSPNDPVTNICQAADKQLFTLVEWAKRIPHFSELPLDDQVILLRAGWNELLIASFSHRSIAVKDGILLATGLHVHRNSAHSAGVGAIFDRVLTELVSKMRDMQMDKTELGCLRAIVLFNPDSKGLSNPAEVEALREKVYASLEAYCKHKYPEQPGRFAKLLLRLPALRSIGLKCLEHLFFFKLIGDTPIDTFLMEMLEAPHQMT
T1 sequence (P37231 1-505 partner): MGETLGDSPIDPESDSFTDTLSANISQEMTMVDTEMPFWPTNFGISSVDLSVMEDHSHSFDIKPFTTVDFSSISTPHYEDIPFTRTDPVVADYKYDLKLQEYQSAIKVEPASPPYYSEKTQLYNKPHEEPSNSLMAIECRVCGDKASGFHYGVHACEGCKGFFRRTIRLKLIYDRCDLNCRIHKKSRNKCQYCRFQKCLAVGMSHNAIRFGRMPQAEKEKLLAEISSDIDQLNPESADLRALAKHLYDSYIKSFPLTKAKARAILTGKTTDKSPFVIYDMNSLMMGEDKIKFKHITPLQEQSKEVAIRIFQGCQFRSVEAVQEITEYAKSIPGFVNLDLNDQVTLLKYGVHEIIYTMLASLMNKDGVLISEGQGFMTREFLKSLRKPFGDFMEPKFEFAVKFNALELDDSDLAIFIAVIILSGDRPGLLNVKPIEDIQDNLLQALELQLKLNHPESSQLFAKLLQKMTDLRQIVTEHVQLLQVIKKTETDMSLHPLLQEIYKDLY
Description: (§1) Nuclear hormone receptor (NHR) ligand dependent transcriptional transactivation assay.
Heterodimer reporter assays are potentially more important selection criteria for synthetic agonistic NHR ligands as they embody a more natural situation. Basically plasmids expressing the recombinant full length NHR are co-transfected with plasmids expressing the full length RXR heteropartner receptor and a reporter plasmid containing several copies of the natural responsive elements for the respective NHR driving the luciferase reporter gene.

RXRγ [1] = target: T2, RXRγ (Homo sapiens, UniProt P48443); experiment: Retinoid activation assay, RXRγ (Schneider SL-3 cells, luciferase reporter); format: cell-based; settings: read-out: Activation EC50 RXR γ
T2 sequence (P48443 1-463): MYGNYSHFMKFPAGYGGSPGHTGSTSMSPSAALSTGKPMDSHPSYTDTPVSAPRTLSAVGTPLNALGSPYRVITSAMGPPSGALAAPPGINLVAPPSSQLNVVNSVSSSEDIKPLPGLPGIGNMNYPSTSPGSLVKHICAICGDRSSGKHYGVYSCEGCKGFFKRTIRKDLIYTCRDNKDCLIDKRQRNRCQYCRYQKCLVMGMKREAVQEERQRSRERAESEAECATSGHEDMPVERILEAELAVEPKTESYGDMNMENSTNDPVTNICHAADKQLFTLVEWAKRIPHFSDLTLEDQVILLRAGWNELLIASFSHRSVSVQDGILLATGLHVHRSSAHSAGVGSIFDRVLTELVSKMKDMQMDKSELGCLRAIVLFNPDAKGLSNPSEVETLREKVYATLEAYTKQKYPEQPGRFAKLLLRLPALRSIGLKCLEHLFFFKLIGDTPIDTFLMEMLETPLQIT
Protocol: (§2) Full length RXR cDNA is used for transfection. As reporter system, the luciferase gene is used in a construct with three copies of a RXR response element from rat CRBP gene, (formerly RARE from betaRAR gene), fused to alcoholdehydrogenase gene promoter in the plasmid pGL2-basic. Schneider SL-3 cells from Drosophila are transiently transfected 3-4 h before the experiment by the Ca-phosphate-DNA coprecipitation method. […] At the end of the incubation, the cell supernatants are assayed for luciferase activity. Results are given as EC50 (nM), the concentration leading to half-maximal activation.

RXRα Homodimer = target: T3, RXRα Homodimer (Homo sapiens, UniProt P19793); experiment: RXRα homodimer activation (transactivation) assay; format: cell-based
T3 construct: expressed in transfected cells; host or cells: mammalian cells (BHK21, CV1, etc)
T3 sequence (P19793 1-462): T1 sequence (P19793 1-462)
Description: as §1
This secondary in vitro functional assay to characterize hits from the primary ligand binding screens is a GAL4-LBD transactivation assay. The Gal4-LBD protein consists of an in frame fusion of the transcription factor galactose 4 DNA binding domain from S.cerevisiae with the ligand binding domain (LBD) of a particular NHR. Briefly, a plasmid construct expressing the recombinant chimeric receptor is co-transfected into mammalian cells (BHK21, CV1, etc) with a luciferase reporter plasmid containing several copies in tandem of the GAL4 binding sites (promoter recognition elements) upstream from the minimal promoter driving the luciferase gene. The transfected cells are treated with compounds for 12-24 hours, lysates are produced and assayed for luciferase activity and normalized to internal standards such as GH, growth hormone or SEAP, secreted alkaline phosphatase. Ligand binding stabilizes the LBD conformation that recruits endogenous co-factors that mediate eventually the increased transcriptional activity of the luciferase reporter gene. By comparing the activation profile of a reference ligand or a natural ligand, the EC50 values for agonistic activity of a particular ligand can be measured. The extent of activation that can be measured is indicative of a partial, respectively full agonistic activity of a ligand. […]

RXRγ [2] = target: T2, RXRγ; experiment: Retinoid binding assay, RXRγ; parameters: made in house; host or cells: E. coli; settings: [3H] 9-cis retinoic acid 20 nM; read-out: Binding Affinity IC50 RXR γ
Description: (§3) The DEF domains of RAR's and the full length RXR's, expressed in E.coli, are used to measure competitive retinoid binding. […] 9-cis retinoic acid (for RXR's), respectively. […] Separation of bound from free radioactivity is achieved by charcoal/dextran (RAR's) or by desalting columns (RXR's). […] Retinoid Activation Assays

RXRα [3] = target: T4, RXRα (Homo sapiens, UniProt P19793); experiment: Retinoid activation assay, RXRα (Schneider SL-3 cells, luciferase reporter); format: cell-based; settings: read-out: Activation EC50 RXR α
T4 sequence (P19793 1-462): T1 sequence (P19793 1-462)
Protocol: as §2

RXRα [4] = target: T4, RXRα; experiment: Retinoid binding assay, RXRα; parameters: made in house; host or cells: E. coli; settings: [3H] 9-cis retinoic acid 20 nM; read-out: Binding Affinity IC50 RXR α
Description: as §3

RXRβ = target: T5, RXRβ (Homo sapiens, UniProt P28702); experiment: Retinoid activation assay, RXRβ (Schneider SL-3 cells, luciferase reporter); format: cell-based; settings: read-out: Activation EC50 RXR β
T5 construct: Full length RXR cDNA is used for transfection; expressed in transfected cells; host or cells: Schneider SL-3 cells (Drosophila)
T5 sequence (P28702 1-533): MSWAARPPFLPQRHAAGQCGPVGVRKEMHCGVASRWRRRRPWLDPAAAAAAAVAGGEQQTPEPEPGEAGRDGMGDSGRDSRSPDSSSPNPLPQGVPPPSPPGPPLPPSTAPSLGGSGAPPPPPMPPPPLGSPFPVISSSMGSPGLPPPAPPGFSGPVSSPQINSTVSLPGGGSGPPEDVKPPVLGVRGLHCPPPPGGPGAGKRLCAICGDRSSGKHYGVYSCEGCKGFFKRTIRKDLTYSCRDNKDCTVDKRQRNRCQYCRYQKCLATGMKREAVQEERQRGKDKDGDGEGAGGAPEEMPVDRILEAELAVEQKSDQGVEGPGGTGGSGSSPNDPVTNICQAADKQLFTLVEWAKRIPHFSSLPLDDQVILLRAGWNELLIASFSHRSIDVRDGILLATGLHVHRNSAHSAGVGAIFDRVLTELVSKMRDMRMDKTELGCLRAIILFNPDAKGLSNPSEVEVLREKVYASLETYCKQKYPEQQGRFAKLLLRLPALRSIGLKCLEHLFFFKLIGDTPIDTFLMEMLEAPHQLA
Protocol: as §2

RARγ = target: T6, RARγ (Homo sapiens, UniProt P13631); experiment: Retinoid binding assay, RARγ; settings: read-out: Binding Affinity IC50 RAR γ
T6 construct: The DEF domains of RAR's and the full length RXR's, expressed in E.coli; made in house; host or cells: E. coli
T6 sequence (P13631 185-419 limits assumed): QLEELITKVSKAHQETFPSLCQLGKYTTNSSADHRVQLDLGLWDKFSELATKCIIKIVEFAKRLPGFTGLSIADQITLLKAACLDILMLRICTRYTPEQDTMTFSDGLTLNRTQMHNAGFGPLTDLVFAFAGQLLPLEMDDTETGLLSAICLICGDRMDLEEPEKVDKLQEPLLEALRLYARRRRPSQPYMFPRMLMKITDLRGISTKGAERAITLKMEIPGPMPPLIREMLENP
Description: as §3

RARβ = target: T7, RARβ (Homo sapiens, UniProt P10826); experiment: Retinoid binding assay, RARβ; parameters: The DEF domains of RAR's and the full length RXR's, expressed in E.coli; made in house; host or cells: E. coli; settings: read-out: Binding Affinity IC50 RAR β
T7 sequence (P10826 183-417 limits assumed): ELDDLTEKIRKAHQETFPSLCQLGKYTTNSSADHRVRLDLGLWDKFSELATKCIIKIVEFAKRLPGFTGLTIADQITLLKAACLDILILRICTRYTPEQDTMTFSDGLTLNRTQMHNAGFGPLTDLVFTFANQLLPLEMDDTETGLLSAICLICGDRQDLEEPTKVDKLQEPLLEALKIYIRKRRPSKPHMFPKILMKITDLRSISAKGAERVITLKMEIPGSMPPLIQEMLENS
Description: as §3

RARα = target: T8, RARα (Homo sapiens, UniProt P10276); experiment: Retinoid binding assay, RARα; parameters: The DEF domains of RAR's and the full length RXR's, expressed in E.coli; made in house; host or cells: E. coli; settings: read-out: Binding Affinity IC50 RAR α
T8 sequence (P10276 183-417 limits assumed): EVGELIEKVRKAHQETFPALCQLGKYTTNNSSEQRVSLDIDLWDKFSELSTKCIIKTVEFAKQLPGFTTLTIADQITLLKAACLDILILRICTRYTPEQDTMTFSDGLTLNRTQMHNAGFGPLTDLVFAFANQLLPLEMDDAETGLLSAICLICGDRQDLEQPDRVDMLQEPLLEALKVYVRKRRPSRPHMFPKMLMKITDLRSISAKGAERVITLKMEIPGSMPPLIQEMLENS
Description: as §3

| EC50 (PPARγ/RXRα Heterodimer) [nM] | EC50 (RXRγ [1]) [nM] | EC50 (RXRα Homodimer) [nM] | IC50 (RXRγ [2]) [nM] | EC50 (RXRα [3]) [nM] | IC50 (RXRα [4]) [nM] | EC50 (RXRβ) [nM] | IC50 (RARγ) [nM] | IC50 (RARβ) [nM] | IC50 (RARα) [nM] | Compound |
| --- | --- | --- | --- | --- | --- | --- | --- | --- | --- | --- |
| 10 | 37 | 2 | 56 | 2.1 | 65 | 17 | – | – | – | CCc1cc2c(cc1\C(C)=C/C=C/C(C)=C/C(=O)O)CCCC2C (racemic) [Compound 11, (2E,4E,6Z)-(RS)-7-(3-Ethyl-5-methyl-5,6,7,8-tetrahydro-naphthalen-2-yl)-3-methyl-octa-2,4,6-trienoic acid] |
| > 30 | > 10000 | > 10000 | 700 | > 10000 | 300 | > 10000 | – | – | – | CCCOc1cc2c(cc1[C@@H]1C[C@@H]1/C=C/C(C)=C/C(=O)O)C(C)(C)CCC2(C)C (racemic) [Compound 22, (2E,4E)-3-Methyl-5-[(1RS,2RS)-2-(5,5,8,8-tetramethyl-3-propoxy-5,6,7,8-tetrahydro-naphthalen-2-yl)-cyclopropyl]-penta-2,4-dienoic acid] |
| 6 | 65 | 2.6 | 122 | 2.6 | 110 | 28 | – | – | – | CC(/C=C/[C@@H]1C[C@@H]1c1ccc2c(c1)C(C)(C)CCC2(C)C)=C\C(=O)O (stereo in doubt) [Compound 10, (2E,4E)-3-Methyl-5-[(1S,2S)-2-(5,5,8,8-tetramethyl-5,6,7,8-tetrahydro-naphthalen-2-yl)-cyclopropyl]-penta-2,4-dienoic acid] |
| – | > 10000 | – | 68 | – | – | > 10000 | 2800 | 3500 | 3100 | CCCOc1cc2c(cc1\C(C)=C/C=C/C(C)=C/C(=O)O)C(C)(C)CCC2(C)C [Compound 23, (2E,4E,6Z)-3-Methyl-7-(5,5,8,8-tetramethyl-3-propoxy-5,6,7,8-tetrahydro-naphthalen-2-yl)-octa-2,4,6-trienoic acid] |
